Test results published in patent US20240109917A1 (ACTELION PHARMACEUTICALS LTD, priority 2020, published 2024).
Read-outs that look alike come from different tables or passages of the source.

Columns and labels:
PDGFRβ = PDGFRβ (Rattus norvegicus (Rat), UniProt Q05030); assay: PDGFRβ Cellular Assay (PDGFRb P-Y751 HTRF in A10 cells stimulated with PDGF-BB); assay type: cell-based
In short: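 Rat A10 cells, plated overnight, were treated with compound for 3 hours, then stimulated with PDGF-BB (working stock 100 ng/mL in 10% FBS medium). After lysis, PDGFRβ P-Y751 was detected by HTRF.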

[1] = target: Tb-labeled inactive PDGFRβ (Homo sapiens (Human), UniProt P09619); assay: PDGFRβ LanthaScreen Assay; assay type: binding; conditions: read-out: PDGFR Lantha IC50
Tb-labeled inactive PDGFRβ, sequence (P09619 33-1106): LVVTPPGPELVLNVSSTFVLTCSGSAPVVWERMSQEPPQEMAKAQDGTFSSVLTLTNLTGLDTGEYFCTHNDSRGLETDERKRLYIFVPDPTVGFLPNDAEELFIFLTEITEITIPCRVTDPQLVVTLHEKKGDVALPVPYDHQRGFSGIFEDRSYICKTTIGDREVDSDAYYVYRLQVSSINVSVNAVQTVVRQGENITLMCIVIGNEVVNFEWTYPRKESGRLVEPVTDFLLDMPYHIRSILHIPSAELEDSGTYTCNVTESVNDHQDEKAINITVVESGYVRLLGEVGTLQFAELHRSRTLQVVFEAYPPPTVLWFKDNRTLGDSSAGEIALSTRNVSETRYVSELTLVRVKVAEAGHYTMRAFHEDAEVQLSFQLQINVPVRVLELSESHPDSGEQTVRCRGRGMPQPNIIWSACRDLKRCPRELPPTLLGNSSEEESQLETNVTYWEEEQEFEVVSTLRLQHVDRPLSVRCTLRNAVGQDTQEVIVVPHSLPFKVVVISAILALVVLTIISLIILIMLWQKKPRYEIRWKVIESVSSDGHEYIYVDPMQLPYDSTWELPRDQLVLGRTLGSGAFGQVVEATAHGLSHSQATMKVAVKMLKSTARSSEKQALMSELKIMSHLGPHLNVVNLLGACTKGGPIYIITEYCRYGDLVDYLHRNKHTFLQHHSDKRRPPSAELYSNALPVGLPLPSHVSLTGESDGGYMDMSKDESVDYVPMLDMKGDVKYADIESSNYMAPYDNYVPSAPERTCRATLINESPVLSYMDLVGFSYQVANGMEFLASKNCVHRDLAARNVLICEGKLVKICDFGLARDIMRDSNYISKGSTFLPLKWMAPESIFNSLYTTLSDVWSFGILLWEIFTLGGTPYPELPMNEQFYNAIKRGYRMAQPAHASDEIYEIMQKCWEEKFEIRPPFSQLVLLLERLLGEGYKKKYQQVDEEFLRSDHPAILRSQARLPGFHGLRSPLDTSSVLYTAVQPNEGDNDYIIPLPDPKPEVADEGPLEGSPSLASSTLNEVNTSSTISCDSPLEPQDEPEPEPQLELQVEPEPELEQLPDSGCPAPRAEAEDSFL

PDGFRβ, sequence (Q05030 32-1097): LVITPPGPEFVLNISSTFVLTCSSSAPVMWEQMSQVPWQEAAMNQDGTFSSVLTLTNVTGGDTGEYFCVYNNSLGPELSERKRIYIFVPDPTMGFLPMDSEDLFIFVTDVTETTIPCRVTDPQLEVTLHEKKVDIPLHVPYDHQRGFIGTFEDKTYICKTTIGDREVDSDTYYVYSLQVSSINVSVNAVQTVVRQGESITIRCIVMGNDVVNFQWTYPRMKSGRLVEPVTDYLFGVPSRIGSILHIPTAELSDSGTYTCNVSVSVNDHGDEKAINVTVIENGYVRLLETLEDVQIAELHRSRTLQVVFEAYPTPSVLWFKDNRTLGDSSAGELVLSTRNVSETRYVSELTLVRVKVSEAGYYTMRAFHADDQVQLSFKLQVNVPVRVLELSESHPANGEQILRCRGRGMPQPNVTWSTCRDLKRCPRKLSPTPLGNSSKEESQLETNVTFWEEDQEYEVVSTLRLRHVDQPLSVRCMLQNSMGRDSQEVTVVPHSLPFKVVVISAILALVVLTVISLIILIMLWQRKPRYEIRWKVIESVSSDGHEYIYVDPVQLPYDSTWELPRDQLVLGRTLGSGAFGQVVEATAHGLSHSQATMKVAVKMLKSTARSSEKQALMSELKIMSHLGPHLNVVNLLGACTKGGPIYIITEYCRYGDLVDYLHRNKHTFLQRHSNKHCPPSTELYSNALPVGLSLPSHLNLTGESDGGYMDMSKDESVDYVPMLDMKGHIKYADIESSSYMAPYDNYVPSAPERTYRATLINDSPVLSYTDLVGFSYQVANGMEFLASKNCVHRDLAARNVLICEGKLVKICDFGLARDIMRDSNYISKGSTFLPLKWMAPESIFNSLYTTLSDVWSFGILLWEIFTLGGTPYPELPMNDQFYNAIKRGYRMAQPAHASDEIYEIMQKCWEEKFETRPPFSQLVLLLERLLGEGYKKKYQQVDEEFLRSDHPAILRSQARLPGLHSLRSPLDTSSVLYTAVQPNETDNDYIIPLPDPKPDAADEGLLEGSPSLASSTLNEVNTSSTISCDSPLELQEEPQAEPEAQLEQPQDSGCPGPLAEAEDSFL

Cc1ncc(NC(=O)OCCN2CCCC2(C)C)cc1NC(=O)c1cnn2cc(-c3cnn(C)c3)sc12 [Example 247, 2-(2,2-dimethylpyrrolidin-1-yl)ethyl (6-methyl-5-(2-(1-methyl-1H-pyrazol-4-yl)pyrazolo[5,1-b]thiazole-7-carboxamido)pyridin-3-yl)carbamate]
IC50 (PDGFRβ; read-out: PDGFR Cellular IC50): 18.3 nM
IC50 [1]: 19.3 nM

Cc1ncc(C(=O)NCCN2CC3CCC2CC3)cc1NC(=O)c1cnn2cc(-c3cnn(C4CC4)c3)sc12 [Example 181, N-(5-((2-(2-azabicyclo[2.2.2]octan-2-yl)ethyl)carbamoyl)-2-methylpyridin-3-yl)-2-(1-cyclopropyl-1H-pyrazol-4-yl)pyrazolo[5,1-b]thiazole-7-carboxamide]
IC50 (PDGFRβ; read-out: PDGFR Cellular IC50): 16.1 nM
IC50 [1]: 2.3 nM

Cc1ncc(NC(=O)OCC(C)(C)N2CCCC2)cc1NC(=O)c1cnn2cc(-c3cnn(C)c3)sc12 [Example 249, 2-methyl-2-(pyrrolidin-1-yl)propyl (6-methyl-5-(2-(1-methyl-1H-pyrazol-4-yl)pyrazolo[5,1-b]thiazole-7-carboxamido)pyridin-3-yl)carbamate]
IC50 (PDGFRβ; read-out: PDGFR Cellular IC50): 59.8 nM
IC50 [1]: 6.5 nM

Cc1ncc(C(=O)NCCN2CCCC2(C)C)cc1NC(=O)c1cnn2cc(-c3cnn(CCC(O)CO)c3)sc12 (stereo not shown) [Example 221, 2-(1-(3,4-Dihydroxybutyl)-1H-pyrazol-4-yl)-N-(5-((2-(2,2-dimethylpyrrolidin-1-yl)ethyl)carbamoyl)-2-methylpyridin-3-yl)pyrazolo[5,1-b]thiazole-7-carboxamide]
IC50 (PDGFRβ; read-out: PDGFR Cellular IC50): 1710 nM
IC50 [1]: 7.1 nM

Cc1ncc(C(=O)NCCN2CC3CCC2C3)cc1NC(=O)c1cnn2cc(-c3cn(C)nc3C)sc12 (stereo not shown) [Example 212, N-(5-((2-(2-azabicyclo[2.2.1]heptan-2-yl)ethyl)carbamoyl)-2-methylpyridin-3-yl)-2-(1,3-dimethyl-1H-pyrazol-4-yl)pyrazolo[5,1-b]thiazole-7-carboxamide]
IC50 (PDGFRβ; read-out: PDGFR Cellular IC50): 104 nM
IC50 [1]: 1.3 nM

Cc1cc(C(=O)NCC(C)(C)N2CCCC2)sc1NC(=O)c1cnn2cc(-c3cnn(C)c3)sc12 [Example 202, 2-(1-methyl-1H-pyrazol-4-yl)-N-(3-methyl-5-((2-methyl-2-(pyrrolidin-1-yl)propyl)carbamoyl)thiophen-2-yl)pyrazolo[5,1-b]thiazole-7-carboxamide]
IC50 (PDGFRβ; PDGFR Cellular IC50): > 3000 nM
IC50 [1]: > 3000 nM

COc1ncccc1-c1cn2ncc(C(=O)Nc3cc(C(=O)NCCN4CCCC4(C)C)cnc3C)c2s1 [Example 226, N-(5-((2-(2,2-Dimethylpyrrolidin-1-yl)ethyl)carbamoyl)-2-methylpyridin-3-yl)-2-(2-methoxypyridin-3-yl)pyrazolo[5,1-b]thiazole-7-carboxamide]
IC50 (PDGFRβ; read-out: PDGFR Cellular IC50): 3.2 nM
IC50 [1]: 1.3 nM

Cc1ncc(NC(=O)CN2CCCC2(C)C)cc1NC(=O)c1cnn2cc(-c3cnn(C)c3)sc12 [Example 13, N-(5-(2-(2,2-dimethylpyrrolidin-1-yl)acetamido)-2-methylpyridin-3-yl)-2-(1-methyl-1H-pyrazol-4-yl)pyrazolo[5,1-b]thiazole-7-carboxamide]
IC50 (PDGFRβ; read-out: PDGFR Cellular IC50): 3.3 nM
IC50 [1]: 5 nM

Cc1ncc(C(=O)NCCN2CCCC2)cc1NC(=O)c1cnn2cc(-c3cn(C)nc3C)sc12 [Example 218, 2-(1,3-Dimethyl-1H-pyrazol-4-yl)-N-(2-methyl-5-((2-(pyrrolidin-1-yl)ethyl)carbamoyl)pyridin-3-yl)pyrazolo[5,1-b]thiazole-7-carboxamide]
IC50 (PDGFRβ; read-out: PDGFR Cellular IC50): 78.8 nM
IC50 [1]: 3.6 nM

Cc1ncc(NC(=O)CN2CCC3(COC3)C2)cc1NC(=O)c1cnn2cc(-c3cnn(C)c3)sc12 [Example 18, N-(5-(2-(2-oxa-6-azaspiro[3.4]octan-6-yl)acetamido)-2-methylpyridin-3-yl)-2-(1-methyl-1H-pyrazol-4-yl)pyrazolo[5,1-b]thiazole-7-carboxamide]
IC50 (PDGFRβ; read-out: PDGFR Cellular IC50): 49.8 nM
IC50 [1]: 9.5 nM

Cc1ncc(C(=O)NCCN2C[C@H]3CC[C@@H]2C3)cc1NC(=O)c1cnn2cc(-c3cn(C)nc3C)sc12 [Example 211, N-(5-((2-((1R,4S)-2-azabicyclo[2.2.1]heptan-2-yl)ethyl)carbamoyl)-2-methylpyridin-3-yl)-2-(1,3-dimethyl-1H-pyrazol-4-yl)pyrazolo[5,1-b]thiazole-7-carboxamide]
IC50 (PDGFRβ; read-out: PDGFR Cellular IC50): 63.6 nM
IC50 [1]: 2.4 nM

Cc1ncc(NC(=O)CCCN2CCC23CCC3)cc1NC(=O)c1cnn2cc(-c3cnn(C)c3)sc12 [Example 215, N-(5-(4-(1-azaspiro[3.3]heptan-1-yl)butanamido)-2-methylpyridin-3-yl)-2-(1-methyl-1H-pyrazol-4-yl)pyrazolo[5,1-b]thiazole-7-carboxamide]
IC50 (PDGFRβ; PDGFR Cellular IC50): 80.1 nM
IC50 [1]: 16.8 nM

Cc1ncc(NC(=O)CN(C)C2CCOCC2)cc1NC(=O)c1cnn2cc(-c3cnn(C)c3)sc12 [Example 15, 2-(1-methyl-1H-pyrazol-4-yl)-N-(2-methyl-5-(2-(methyl(tetrahydro-2H-pyran-4-yl)amino)acetamido)pyridin-3-yl)pyrazolo[5,1-b]thiazole-7-carboxamide]
IC50 (PDGFRβ; read-out: PDGFR Cellular IC50): 15.7 nM
IC50 [1]: 4.7 nM

Cc1ncc(C(=O)NCCN2CC3CCC2CC3)cc1NC(=O)c1cnn2cc(-c3cnn(C(F)F)c3)sc12 [Example 180, N-(5-((2-(2-azabicyclo[2.2.2]octan-2-yl)ethyl)carbamoyl)-2-methylpyridin-3-yl)-2-(1-(difluoromethyl)-1H-pyrazol-4-yl)pyrazolo[5,1-b]thiazole-7-carboxamide]
IC50 (PDGFRβ; PDGFR Cellular IC50): 38.4 nM
IC50 [1]: 6.1 nM

Cc1ncc(NC(=O)CCN2CCCC2(C)C)cc1NC(=O)c1cnn2cc(-c3cccc4c3cnn4C)sc12 [Example 241, N-(5-(3-(2,2-dimethylpyrrolidin-1-yl)propanamido)-2-methylpyridin-3-yl)-2-(1-methyl-1H-indazol-4-yl)pyrazolo[5,1-b]thiazole-7-carboxamide]
IC50 (PDGFRβ; read-out: PDGFR Cellular IC50): 2.7 nM
IC50 [1]: 0.7 nM

Cc1ncc(C(=O)NCCN2CCCC23CCC3)cc1NC(=O)c1cnn2cc(-c3cn(C)nc3C)sc12 [Example 213, N-(5-((2-(5-azaspiro[3.4]octan-5-yl)ethyl)carbamoyl)-2-methylpyridin-3-yl)-2-(1,3-dimethyl-1H-pyrazol-4-yl)pyrazolo[5,1-b]thiazole-7-carboxamide]
IC50 (PDGFRβ; read-out: PDGFR Cellular IC50): 2.4 nM
IC50 [1]: 1.9 nM

Cc1ncc(C(=O)NCCN2CCCC2(C)C)cc1NC(=O)c1cnn2cc(-n3ncc4cccnc43)sc12 [Example 217, N-(5-((2-(2,2-dimethylpyrrolidin-1-yl)ethyl)carbamoyl)-2-methylpyridin-3-yl)-2-(1H-pyrazolo[3,4-b]pyridin-1-yl)pyrazolo[5,1-b]thiazole-7-carboxamide]
IC50 (PDGFRβ; read-out: PDGFR Cellular IC50): 8.9 nM
IC50 [1]: 2.5 nM

Cc1ncc(NC(=O)CN2CCCC23CC3)cc1NC(=O)c1cnn2cc(-c3cnn(C)c3)sc12 [Example 16, N-(5-(2-(4-azaspiro[2.4]heptan-4-yl)acetamido)-2-methylpyridin-3-yl)-2-(1-methyl-1H-pyrazol-4-yl)pyrazolo[5,1-b]thiazole-7-carboxamide]
IC50 (PDGFRβ; read-out: PDGFR Cellular IC50): 4.1 nM
IC50 [1]: 5.1 nM

Cc1ncc(C(=O)NCCN2CCCC2)cc1NC(=O)c1cnn2cc(-c3c(C)nn(C)c3C)sc12 [Example 223, N-(2-methyl-5-((2-(pyrrolidin-1-yl)ethyl)carbamoyl)pyridin-3-yl)-2-(1,3,5-trimethyl-1H-pyrazol-4-yl)pyrazolo[5,1-b]thiazole-7-carboxamide]
IC50 (PDGFRβ; read-out: PDGFR Cellular IC50): 69.5 nM
IC50 [1]: 5.7 nM

Cc1ncc(C(=O)NCCN2CCCC2(C)C)cc1NC(=O)c1cnn2cc(-c3cccc4c3cnn4C)sc12 [Example 240, N-(5-((2-(2,2-dimethylpyrrolidin-1-yl)ethyl)carbamoyl)-2-methylpyridin-3-yl)-2-(1-methyl-1H-indazol-4-yl)pyrazolo[5,1-b]thiazole-7-carboxamide]
IC50 (PDGFRβ; read-out: PDGFR Cellular IC50): 11.8 nM
IC50 [1]: 2 nM

Cc1ncc(NC(=O)OCCN2CCCC2)cc1NC(=O)c1cnn2cc(-c3cnn(C)c3)sc12 [Example 246, 2-(pyrrolidin-1-yl)ethyl (6-methyl-5-(2-(1-methyl-1H-pyrazol-4-yl)pyrazolo[5,1-b]thiazole-7-carboxamido)pyridin-3-yl)carbamate]
IC50 (PDGFRβ; read-out: PDGFR Cellular IC50): 113 nM
IC50 [1]: 64.7 nM

Cc1ncc(C(=O)NC2CN(C(C)(C)C)C2)cc1NC(=O)c1cnn2cc(-c3cnn(C)c3)sc12 [Example 237, N-(5-((1-(tert-butyl)azetidin-3-yl)carbamoyl)-2-methylpyridin-3-yl)-2-(1-methyl-1H-pyrazol-4-yl)pyrazolo[5,1-b]thiazole-7-carboxamide]
IC50 (PDGFRβ; PDGFR Cellular IC50): 619 nM
IC50 [1]: 57.2 nM

Cc1ncc(C(=O)NCCN2CCCC23CCC3)cc1NC(=O)c1cnn2cc(-c3cnn(C)c3C)sc12 [Example 209, N-(5-((2-(5-azaspiro[3.4]octan-5-yl)ethyl)carbamoyl)-2-methyl-pyridin-3-yl)-2-(1,5-dimethyl-1H-pyrazol-4-yl)pyrazolo[5,1-b]thiazole-7-carboxamide]
IC50 (PDGFRβ; read-out: PDGFR Cellular IC50): 2.8 nM
IC50 [1]: 2.2 nM

Cc1cc(C(=O)NCCN2CCCC2(C)C)sc1NC(=O)c1cnn2cc(-c3ccc(N)nc3)sc12 [Example 184, 2-(6-aminopyridin-3-yl)-N-(5-((2-(2,2-dimethylpyrrolidin-1-yl)ethyl)carbamoyl)-3-methylthiophen-2-yl)pyrazolo[5,1-b]thiazole-7-carboxamide]
IC50 (PDGFRβ; read-out: PDGFR Cellular IC50): 1630 nM
IC50 [1]: 829 nM

Cc1cc(C(=O)NCCN2CCCC2(C)C)sc1NC(=O)c1cnn2cc(-c3cnn(C)n3)sc12 [Example 186, N-(5-((2-(2,2-dimethylpyrrolidin-1-yl)ethyl)carbamoyl)-3-methylthiophen-2-yl)-2-(2-methyl-2H-1,2,3-triazol-4-yl)pyrazolo[5,1-b]thiazole-7-carboxamide]
IC50 (PDGFRβ; read-out: PDGFR Cellular IC50): 593 nM
IC50 [1]: 2250 nM

Cc1ncc(C(=O)N2CC2CNC(C)(C)C)cc1NC(=O)c1cnn2cc(-c3cccc4c3cnn4C)sc12 (stereo not shown) [Example 239, N-(5-(2-((tert-butylamino)methyl)aziridine-1-carbonyl)-2-methylpyridin-3-yl)-2-(1-methyl-1H-indazol-4-yl)pyrazolo[5,1-b]thiazole-7-carboxamide]
IC50 (PDGFRβ; read-out: PDGFR Cellular IC50): 349 nM
IC50 [1]: 78.7 nM
